Assay results taken from paper PMC10354055, “An optimized Nurr1 agonist provides disease-modifying effects in Parkinson’s disease models” (Nature Communications, 2023).
Where “and” joins values, the source holds several entries; their conditions need not be identical. Identical values can stand only once. Blank lines part the entries; values can stand above or below the compound they belong to.

Assays:
[1] = test system: MPTP-induced male mice; assay: Rotarod, sub-chronic MPTP-induced PD model mice; format: in vivo, mouse
Experimental: (§1) MPTP (Sigma-Aldrich) was intraperitoneally (i.p.) injected (30 mg/kg) for 5 days (Day 1-5). […] To test dyskinetic involuntary behavior, an L-DOPA injected group was included, which received 50 mg/kg of L-DOPA and 15 mg/kg of benserazide (Sigma-Aldrich) (i.p.) for 16 days (Day 1–16). All compounds were administered 6 h post-MPTP injection to avoid any effect of compounds on the MPTP metabolism in the brain. Motor and non-motor related behavior tests were performed on the following days as described in Fig. 4a in an assessor- and observer-blinded fashion. Pre-training and baseline setup for motor-related behaviors were performed 3 days prior to the injections. Mice were sacrificed and subjected to immunohistochemistry. Mice were housed at the Animal Care Facilities of McLean Hospital under a 12-h light/12-h dark cycle, ambient temperature and humidity. Animals were handled in accordance with McLean Hospital’s Institutional Animal Care and Use Committee (Protocol #: 2015N000002) and followed National Institutes of Health guidelines.
Mice were pre-trained on an automated 5-lane rotarod unit (10 rpm, 3 min) for 2 days and the baseline was measured (10 rpm, 90 sec) before the rotarod test (3 days before the MPTP injection or the first rotarod test at week 2). Rotarod measurements were performed using an accelerating protocol, accelerated smoothly from 2 to 30 rpm for 5 min. Time on the rotating rod was measured automatically by placing a trip switch under the floor beneath the rotating drum.

[2] = test system: MPTP-induced male mice; assay: Pole test, MPTP-induced PD model mice; format: in vivo, mouse
Experimental: as §1
Mice were trained to descend a vertical metal rod wrapped with rough tape (80 cm high, 12 mm diameter) once per day for 2 days, and then the baseline was measured before the pole test (3 days before the MPTP injection or the first pole test at week 2). Mice were placed head-upward on the pole and total descent time was recorded.

[3] = test system: MPTP-induced male mice; assay: Cylinder test, MPTP-induced PD model mice; format: in vivo, mouse
Experimental: as §1
Mice were placed in a transparent plastic cylinder (15.5 cm high, 12.7 cm diameter) with a mirror behind it. Spontaneous activity was recorded and measured as counting the number of rearing events for 3 min session. A rear was considered only when the mouse touched the wall of the cylinder with its forelimb paws while standing on its hindlimbs (vertical movement) to count meaningful physiological movements.

[4] = test system: MPTP-induced male mice; assay: Olfactory discrimination test, MPTP-induced PD model mice; format: in vivo, mouse; settings: Figure 4e, MPTP-induced mice, individual animal values
Experimental: as §1
The olfactory discrimination test was designed based on Prediger et al.. Briefly, mice were placed in a chamber (40 (w) × 20 (d) × 20 (h) cm) segmented with two identical compartments containing fresh sawdust (non-familiar odor) on one side and unchanged sawdust (familiar odor; maintained for 3 days before the test) on the other side. Mice could choose between one or another area by freely passing through an open door, for 5 min. Mice movements were monitored with EthoVision XT version 7.0 (Noldus) and time (s) and distance (cm) traveled in each compartment were recorded and analyzed.

[5] = test system: MPTP-induced male mice; assay: AIMs scoring (dyskinesia), MPTP-induced PD model mice; format: in vivo, mouse; settings: for AIMs score (20-140 min): Figure 4f, MPTP-induced mice, individual animal values
Experimental: Male C57BL/6 J mice (8–10 weeks, 25–30 g; Jackson Laboratories) were randomly assigned to 5 groups including vehicle (VEH), MPTP, MPTP + L-DOPA, MPTP + CQ and MPTP + 4A7C-301 (n ≥ 7 for each group). MPTP (Sigma-Aldrich) was intraperitoneally (i.p.) injected (30 mg/kg) for 5 days (Day 1-5). Different dosages of CQ (20, 40, and 80 mg/kg) and 4A7C-301 (1, 5, 20 mg/kg) were first tested to determine the effective dose window, then 40 and 5 mg/kg doses were finally selected for CQ and 4A7C-301 respectively to show the most prominent effects. CQ or 4A7C-301 was dissolved in PBS and administrated (i.p.) for 16 days starting with MPTP injection (Day 1-16). To test dyskinetic involuntary behavior, an L-DOPA injected group was included, which received 50 mg/kg of L-DOPA and 15 mg/kg of benserazide (Sigma-Aldrich) (i.p.) for 16 days (Day 1–16). All compounds were administered 6 h post-MPTP injection to avoid any effect of compounds on the MPTP metabolism in the brain. Motor and non-motor related behavior tests were performed on the following days as described in Fig. 4a in an assessor- and observer-blinded fashion. Pre-training and baseline setup for motor-related behaviors were performed 3 days prior to the injections. Mice were sacrificed and subjected to immunohistochemistry. Mice were housed at the Animal Care Facilities of McLean Hospital under a 12-h light/12-h dark cycle, ambient temperature and humidity. Animals were handled in accordance with McLean Hospital’s Institutional Animal Care and Use Committee (Protocol #: 2015N000002) and followed National Institutes of Health guidelines.
Abnormal involuntary movements (AIMs) were scored using the developed mouse dyskinesia rating scale as described in Sebastianutto et al.. Briefly, 4 mice were recorded simultaneously with a Swann HD Security System (B&H Photo-Video Inc.) for 2 min per session, every 20 min during the 140 min following drug injections (i.e., total 7 sessions), on every other or third day (Day 2, 4, 7, 9, 11, 13, and 16). Dyskinetic movements were scored for 3 subtypes of basic AIMs including axial, forelimb and orolingual AIMs, based on the severity scale from 0 to 4 which measures the duration of AIMs (0 = no dyskinesia; 1 = display dyskinesia for <50% of the observation time; 2 = display dyskinesia for >50% of the observation time; 3 = display dyskinesia for the entire observation period but ceased upon external stimuli; 4 = display continuous and unceasing dyskinesia). To get a better and more sensitive validation of mice dyskinesia, we included an amplitude AIMs score, which rates the degree of deviation of body part or muscle position from its resting position on a 0-4 scale as previously described. Finally, global AIMs score was calculated by multiplying basic AIMs and amplitude AIMs scores for each subtype on each session. Data points were plotted as the grand total of individual AIMs score on each testing day.

[6] = test system: MPTP-induced male mice; assay: IHC/stereology of TH+ fibers, TH+ DA neurons and NeuN+ neurons, MPTP-induced mice; format: in vivo, mouse; settings: MPTP-induced mice, individual animal values
Experimental: as §1
(§2) Images were acquired using a KEYENCE microscope and quantified as the number or optical density of immunoreactive cells using ImageJ software.
(§3) The numbers of TH^+ DA neurons, NeuN^+ neurons, pS129 αSyn^+ cells in the SN and Iba-1^+ microglia in the SN and striatum were stereologically counted in six coronal sections (30 µm thickness) taken every 6th section (180 µm intervals) for each brain. The boundaries of the SN and striatum were delimited at low magnification (4X) to estimate each total area. Immunoreactive cells were counted with images taken at high magnification (×40) by a single blinded investigator. The group mean of the total number of immunoreactive cells from each brain was transformed as percentage of the number in the control group (%). For AAV-αSyn-induced mice, the group mean of the total number of cells in the ipsilateral side was transformed as a percentage of that observed in the contralateral side.

[7] = test system: MPTP-induced male mice; assay: IHC of Iba-1+ microglia in STR and SNpc, MPTP-induced mice; format: in vivo, mouse; settings: MPTP-induced mice, individual animal values
Experimental: as §1, §2, §3

[8] = molecular target: T1, Nur77 (Homo sapiens, UniProt P22736); assay: Luciferase reporter assay, Nur77 LBD, SK-N-BE(2)C cells; format: cell-based; settings: Fig. 1f, CQ 100 µM, 4A7C-301 20 µM, cytosporone B 10 µM
T1 construct: using LBD of NR4A subfamily members in SK-N-BE(2)C cells; expressed in transfected cells; host or cells: SK-N-BE(2)C
T1 sequence (P22736 360-595 limits assumed, species assumed): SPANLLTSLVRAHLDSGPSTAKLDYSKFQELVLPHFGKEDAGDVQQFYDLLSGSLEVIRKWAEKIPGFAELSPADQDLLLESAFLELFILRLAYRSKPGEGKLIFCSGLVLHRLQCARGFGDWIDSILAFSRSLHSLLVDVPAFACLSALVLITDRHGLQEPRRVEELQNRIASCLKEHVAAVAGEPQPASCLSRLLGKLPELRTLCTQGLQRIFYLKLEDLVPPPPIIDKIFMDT

[9] = CQ 40, 4A7C-301 5, L-DOPA 50 mg/kg/day, i.p., 16 days

- abnormal involuntary movements (AIMs) (in words) ([5]; CQ 40, 4A7C-301 5, L-DOPA 50 mg/kg/day, i.p.): severe AIMs
Structure (SMILES): N[C@@H](Cc1ccc(O)c(O)c1)C(=O)O [L-DOPA]
- motor function, rotarod (in words) [1, 9]: significantly rescued
- Latency to fall ([1]; Figure 4b, MPTP-induced mice, individual animal values): 137.97 s and 138.13 s and 80.13 s and 101.23 s and 128.1 s and 204.93 s and 146.8 s and 175.2 s and 116.5 s and 196.07 s
- motor function, pole test (in words) [2, 9]: significantly rescued
- Time to traverse ([2]; Figure 4c, MPTP-induced mice, individual animal values): 8.78 s and 7.65 s and 6.89 s and 8.14 s and 4.4 s and 7.41 s and 5.91 s and 7.98 s and 7.2 s and 9.47 s
- motor function, cylinder test (in words) [3, 9]: significantly rescued
- Number of rearing ([3]; Figure 4d, MPTP-induced mice, individual animal values): 34 and 77 and 71 and 22 and 24 and 17 and 21 and 55 and 32 and 29
- Velocity [4]: 4.7 cm/s and 5.67 cm/s and 6.49 cm/s and 5.88 cm/s and 6.16 cm/s and 7.7 cm/s and 9.82 cm/s and 6.86 cm/s and 7.1 cm/s and 6.45 cm/s and 7.2 cm/s
- Duration to stay (sec), New bedding ([4]; New bedding): 183.25 s and 108.99 s and 116.25 s and 132.99 s and 167.47 s and 141.68 s and 212.98 s and 167.63 s and 167.4 s and 102.43 s and 140.79 s
- Duration to stay (sec), Old bedding ([4]; Old bedding): 133.6 s and 197.16 s and 159.56 s and 114.75 s and 189.57 s and 183.55 s and 166.31 s and 132.11 s and 158.67 s and 90.56 s and 134.77 s
- AIMs score (20-140 min) ([5]; day 2): 7 and 5.5 and 11 (2×) and 6 and 14 and 20 and 4 and 12 and 5 and 16.3
- AIMs score (20-140 min) ([5]; day 4): 9 and 13 and 14 and 12 (2×) and 16 (2×) and 17 (2×) and 27 (2×)
- AIMs score (20-140 min) ([5]; day 7): 21.5 and 27.5 and 12 and 55 and 25.5 and 35 and 14 and 56 and 31.5 and 46 and 20
- AIMs score (20-140 min) ([5]; day 9): 23 (2×) and 26 and 21 (3×) and 19 (2×) and 42 and 18 and 44
- AIMs score (20-140 min) ([5]; day 11): 28 and 33 and 23 and 27 and 20 and 35 (2×) and 12 and 55.5 and 30.5 and 61
- AIMs score (20-140 min) ([5]; day 13): 63.5 and 30.5 and 43 and 32.5 and 36 and 50 and 34 and 34.5 and 53.25 and 63 and 56
- AIMs score (20-140 min) ([5]; day 16): 110.5 and 38.5 (2×) and 56 and 60.5 and 40.5 and 47.5 and 84 and 48.5 and 67.5 and 83.5
- TH+ neurons in SNpc (% of control) ([6]; Figure 4j): 85.08 % of control and 29.95 % of control and 41.78 % of control and 36.5 % of control and 16.11 % of control and 47.32 % of control and 20.39 % of control
- NeuN+ neurons in SNpc (% of control) ([6]; Figure 4k): 54.87 % of control and 63.58 % of control and 65.33 % of control and 79.48 % of control
- TH fiber density in STR (% of control) ([6]; Figure 4h): 32.4 % of control and 36.19 % of control and 33.35 % of control and 30.68 % of control and 30.71 % of control and 45.79 % of control and 28.8 % of control
- Iba-1+ cells in STR (% of control) ([7]; Figure 4m): 163.11 % of control and 168.08 % of control and 185.26 % of control and 234.36 % of control and 189.06 % of control and 208.32 % of control and 222.78 % of control
- Iba-1+ cells in SNpc (% of control) ([7]; Figure 4n): 319.52 % of control and 324.44 % of control and 366.71 % of control and 419.8 % of control and 373.6 % of control and 282.16 % of control and 446.35 % of control

- Luciferase activity (fold), Nur77 ([8]; listed as cytosporone B): robustly increased
Structure (SMILES): CCCCCCCC(=O)c1c(O)cc(O)cc1CC(=O)OCC [Cytosporone B, cytosporone B]
- Luciferase activity (fold), Nur77 [8]: 13.029 fold and 14.4047 fold and 12.8586 fold
